The supplement of paper PMC13380429
± gives the standard deviation of the averaged measurements.

Key:
Settings in all cases: 72 h
HepG2 [1] = assay: cell viability relative to DMSO; higher = less toxic
Vero E6 [2] = assay: as above
Caco-2 [3] = assay: as above
Calu-3 [4] = assay: as above
U2OS [5] = assay: as above
HepG2 [6] = assay: relative viability EC50 (midpoint between 100% and the lowest measured viability); higher = less toxic
Vero E6 [7] = assay: as above
Caco-2 [8] = assay: as above
Calu-3 [9] = assay: as above
U2OS [10] = assay: as above
HepG2 [11] = assay: drug sensitivity score (DSS) for viability; higher = more toxic; extreme values may be limits of the assay
Vero E6 [12] = assay: as above
Caco-2 [13] = assay: as above
Calu-3 [14] = assay: as above
U2OS [15] = assay: as above

Row | SMILES | cell viability (HepG2 [1]; 1 nM) [%] | cell viability (HepG2 [1]; 10 nM) [%] | cell viability (HepG2 [1]; 100 nM) [%] | cell viability (HepG2 [1]; 1000 nM) [%] | cell viability (HepG2 [1]; 10000 nM) [%] | cell viability (Vero E6 [2]; 1 nM) [%] | cell viability (Vero E6 [2]; 10 nM) [%] | cell viability (Vero E6 [2]; 100 nM) [%] | cell viability (Vero E6 [2]; 1000 nM) [%] | cell viability (Vero E6 [2]; 10000 nM) [%] | cell viability (Caco-2 [3]; 1 nM) [%] | cell viability (Caco-2 [3]; 10 nM) [%] | cell viability (Caco-2 [3]; 100 nM) [%] | cell viability (Caco-2 [3]; 1000 nM) [%] | cell viability (Caco-2 [3]; 10000 nM) [%] | cell viability (Calu-3 [4]; 1 nM) [%] | cell viability (Calu-3 [4]; 10 nM) [%] | cell viability (Calu-3 [4]; 100 nM) [%] | cell viability (Calu-3 [4]; 1000 nM) [%] | cell viability (Calu-3 [4]; 10000 nM) [%] | cell viability (U2OS [5]; 1 nM) [%] | cell viability (U2OS [5]; 10 nM) [%] | cell viability (U2OS [5]; 100 nM) [%] | cell viability (U2OS [5]; 1000 nM) [%] | cell viability (U2OS [5]; 10000 nM) [%] | relative viability EC50 (HepG2 [6]) [µM] | relative viability EC50 (Vero E6 [7]) [µM] | relative viability EC50 (Caco-2 [8]) [µM] | relative viability EC50 (Calu-3 [9]) [µM] | relative viability EC50 (U2OS [10]) [µM] | drug sensitivity score (HepG2 [11]) | drug sensitivity score (Vero E6 [12]) | drug sensitivity score (Caco-2 [13]) | drug sensitivity score (Calu-3 [14]) | drug sensitivity score (U2OS [15])
1 | C=C[C@@]1(C)CC(=O)[C@]2(O)[C@@]3(C)[C@@H](O)CCC(C)(C)[C@@H]3[C@H](O)[C@H](OC(C)=O)[C@@]2(C)O1 [colforsin] | 110 ± 8.1 | 106 ± 3.4 | 101 ± 3.2 | 96.4 ± 4.8 | 99.2 ± 3.2 | 97.7 ± 6.5 | 101 ± 14 | 103 ± 4.5 | 89.9 ± 3.5 | 85.7 ± 4.3 | 97.9 ± 2.7 | 99.3 ± 1.3 | 100 ± 3.5 | 109 ± 6.7 | 118 ± 10 | 106 ± 14 | 109 ± 11 | 103 ± 3 | 106 ± 2.1 | 97.5 ± 7.2 | 101 ± 1.1 | 101 ± 5 | 95.9 ± 0.28 | 100 ± 1.4 | 96.65 ± 0.64 | > 10 | > 10 | > 10 | > 10 | > 10 | 0 | 0.4 ± 0.28 | 0 | 0 | 0
2 | N#CCC(=O)NN [cyacetacide] | 95.7 | 91.9 | 97 | 97.4 | 93.4 | 106 | 98.6 | 102 | 108 | 102 | 98.2 | 102 | 100 | 95.6 | 97.8 | 84 | 103 | 96.3 | 95.7 | 108 | 95.5 | 103 | 96 | 94 | 102 | > 10 | > 10 | > 10 | > 10 | > 10 | 0 | 0 | 0 | 0 | 0
3 | CN1CCN(C(c2ccccc2)c2ccccc2)CC1 [cyclizine] | 94.7 | 99.1 | 103 | 104 | 97.6 | 97.7 | 96.3 | 93.7 | 96 | 102 | 95.7 | 101 | 99.9 | 94.9 | 103 | 104 | 98.9 | 85.8 | 102 | 99.9 | 105 | 94 | 101 | 95.6 | 97.5 | > 10 | > 10 | > 10 | > 10 | > 10 | 0 | 0 | 0 | 0 | 0
4 | CC(C)(C)OC(=O)N[C@H]1CCCCC/C=C\[C@@H]2C[C@@]2(C(=O)NS(=O)(=O)C2CC2)NC(=O)[C@@H]2C[C@@H](OC(=O)N3Cc4cccc(F)c4C3)CN2C1=O [danoprevir] | 109 | 104 | 94.2 | 92 | 95.1 | 106 | 98.8 | 98.6 | 103 | 103 | 98.1 | 98.5 | 98.4 | 101 | 83 | 107 | 103 | 85.1 | 107 | 102 | 104 | 101 | 98.9 | 99.4 | 98.2 | > 10 | > 10 | > 10 | > 10 | > 10 | 0 | 0 | 0.3 | 0 | 0
5 | C[C@H](CCC(=O)O)[C@H]1CC[C@H]2[C@@H]3CC[C@@H]4C[C@H](O)CC[C@]4(C)[C@H]3C[C@H](O)[C@]12C [deoxycholic-acid] | 105 | 112 | 90.9 | 102 | 97.5 | 99.5 | 103 | 102 | 106 | 101 | 102 | 97.5 | 98.5 | 105 | 90 | 103 | 93.9 | 103 | 102 | 102 | 96.8 | 99.2 | 98.7 | 99.8 | 98.2 | > 10 | > 10 | > 10 | > 10 | > 10 | 0 | 0 | 0 | 0 | 0
6 | C[C@@H](CN1CC(=O)NC(=O)C1)N1CC(=O)NC(=O)C1 [dexrazoxane] | 93.9 | 106 | 98.2 | 92.2 | 100 | 105 | 101 | 103 | 93.8 | 99.7 | 89.3 | 103 | 90.4 | 105 | 90.3 | 104 | 92.2 | 95.1 | 96.9 | 101 | 96.9 | 109 | 96.7 | 102 | 98.6 | > 10 | > 10 | > 10 | > 10 | > 10 | 0 | 0 | 0 | 0 | 0
